Measurements published in patent publication US10618918B2, “Substituted boronic acids as antimicrobials” (priority 2015, dated 2020).
pKi: −log10 of the molar value. Like-named read-outs stand apart in the source and are kept apart here.

How the values were obtained:
KP1086 OXA-48 = experiment: Biapenem potentiation (MPC@1), strain KP1086 OXA-48; type: cell-based; settings: minimum BLI concentration inhibiting growth with biapenem 1 μg/mL; tested up to 40 μg/mL
Protocol: (§1) Biapenem was present in the test medium at 1 μg/mL. […] Table 3 summarizes the BLI potency of biapenem potentiation (MPC@1) for two strains overexpressing class A (KPC) and class D (OXA-48) carbapenemases. Biapenem MIC for each strain is also shown.

KP1005 CTX-M-14 = experiment: Tigemonam potentiation (MPC@4), strain KP1005 CTX-M-14; settings: minimum BLI concentration inhibiting growth with tigemonam 4 μg/mL; tested up to 40 μg/mL
KP1004 KPC-2 [1] = experiment: Aztreonam potentiation (MPC@4), strain KP1004 KPC-2; settings: minimum BLI concentration inhibiting growth with aztreonam 4 μg/mL; tested up to 40 μg/mL
EC1010 CMY-6 = experiment: Aztreonam potentiation (MPC@4), strain EC1010 CMY-6; settings: minimum BLI concentration inhibiting growth with aztreonam 4 μg/mL; tested up to 40 μg/mL
ec308 SHV-5 = experiment: Aztreonam potentiation (MPC@4), strain ec308 SHV-5; settings: minimum BLI concentration inhibiting growth with aztreonam 4 μg/mL; tested up to 40 μg/mL
KP1004 KPC-2 [2] = experiment: Biapenem potentiation (MPC@1), strain KP1004 KPC-2; type: cell-based; settings: minimum BLI concentration inhibiting growth with biapenem 1 μg/mL; tested up to 40 μg/mL
Protocol: as §1

AB1054 OXA-23 = experiment: Meropenem potentiation (MPC@8), strain AB1054 OXA-23; type: cell-based, Acinetobacter baumannii; settings: minimum BLI concentration inhibiting growth with meropenem 8 μg/mL; tested up to 20 μg/mL
AB1053 OXA-72 = experiment: Meropenem potentiation (MPC@8), strain AB1053 OXA-72; type: cell-based, Acinetobacter baumannii; settings: minimum BLI concentration inhibiting growth with meropenem 8 μg/mL; tested up to 20 μg/mL
KP1009 CTX-M-15 = experiment: Aztreonam potentiation (MPC@4), strain KP1009 CTX-M-15; settings: minimum BLI concentration inhibiting growth with aztreonam 4 μg/mL; tested up to 40 μg/mL
[3] = biological target: purified class A, C and D enzymes (β-lactamases) (Klebsiella pneumoniae, UniProt Q6XEC0); experiment: biochemical; type: biochemical
[4] = biological target: T1, purified class A, C and D enzymes (β-lactamases) (Acinetobacter baumannii, UniProt Q9L4P2); experiment: biochemical; type: biochemical; settings: purified OXA-23; nitrocefin (NCF) as reporter substrate
T1 construct: rows headed: Ki (OXA-23, NCF), uM; other: purified OXA-23; nitrocefin (NCF) as reporter substrate
T1 sequence (Q9L4P2 whole entry): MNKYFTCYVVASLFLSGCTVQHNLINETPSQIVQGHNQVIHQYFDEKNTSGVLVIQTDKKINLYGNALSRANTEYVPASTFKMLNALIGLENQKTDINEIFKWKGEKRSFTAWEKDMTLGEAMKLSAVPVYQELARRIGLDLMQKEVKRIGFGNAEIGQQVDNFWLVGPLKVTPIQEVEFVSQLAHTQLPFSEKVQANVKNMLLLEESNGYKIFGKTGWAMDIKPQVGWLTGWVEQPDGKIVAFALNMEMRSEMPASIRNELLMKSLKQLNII

[5] = biological target: purified class A, C and D enzymes (β-lactamases) (Enterobacter cloacae, UniProt P05364); experiment: biochemical; type: biochemical
Chain of purified class A, C and D enzymes (β-lactamases) (Enterobacter cloacae, UniProt P05364) (P05364 21-381): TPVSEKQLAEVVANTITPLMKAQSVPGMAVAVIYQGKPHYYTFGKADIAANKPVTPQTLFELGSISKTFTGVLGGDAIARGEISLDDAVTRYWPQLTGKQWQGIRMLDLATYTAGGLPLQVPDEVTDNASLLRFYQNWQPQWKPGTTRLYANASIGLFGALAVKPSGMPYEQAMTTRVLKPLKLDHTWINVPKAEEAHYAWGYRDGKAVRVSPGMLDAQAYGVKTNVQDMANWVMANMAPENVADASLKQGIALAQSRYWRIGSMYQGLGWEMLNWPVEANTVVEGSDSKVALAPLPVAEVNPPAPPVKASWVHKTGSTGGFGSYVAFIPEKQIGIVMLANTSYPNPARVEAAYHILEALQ

[6] = biological target: T2, purified class A, C and D enzymes (β-lactamases) (Pseudomonas aeruginosa, UniProt P24735); experiment: biochemical; type: biochemical
T2 construct: rows headed: Ki (Pa-AmpC, NCF), uM; other: purified Pa-AmpC; nitrocefin (NCF) as reporter substrate
T2 sequence (P24735 whole entry): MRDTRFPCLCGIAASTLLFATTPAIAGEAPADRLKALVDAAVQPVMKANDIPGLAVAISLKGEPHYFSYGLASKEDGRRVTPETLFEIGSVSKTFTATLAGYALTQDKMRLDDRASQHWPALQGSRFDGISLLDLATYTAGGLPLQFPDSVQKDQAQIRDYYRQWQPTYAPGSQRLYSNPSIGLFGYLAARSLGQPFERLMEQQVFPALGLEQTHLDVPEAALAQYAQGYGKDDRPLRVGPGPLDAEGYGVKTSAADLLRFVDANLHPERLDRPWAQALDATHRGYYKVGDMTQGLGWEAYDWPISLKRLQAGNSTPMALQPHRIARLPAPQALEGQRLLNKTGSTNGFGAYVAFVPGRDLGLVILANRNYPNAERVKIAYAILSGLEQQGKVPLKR

[7] = biological target: purified class A, C and D enzymes (β-lactamases) (Klebsiella pneumoniae, UniProt Q9F663); experiment: biochemical; type: biochemical
[8] = biological target: purified class A, C and D enzymes (β-lactamases) (Escherichia coli, UniProt Q9L5C7); experiment: biochemical; type: biochemical
Chain of purified class A, C and D enzymes (β-lactamases) (Escherichia coli, UniProt Q9L5C7) (Q9L5C7 entry or part of it): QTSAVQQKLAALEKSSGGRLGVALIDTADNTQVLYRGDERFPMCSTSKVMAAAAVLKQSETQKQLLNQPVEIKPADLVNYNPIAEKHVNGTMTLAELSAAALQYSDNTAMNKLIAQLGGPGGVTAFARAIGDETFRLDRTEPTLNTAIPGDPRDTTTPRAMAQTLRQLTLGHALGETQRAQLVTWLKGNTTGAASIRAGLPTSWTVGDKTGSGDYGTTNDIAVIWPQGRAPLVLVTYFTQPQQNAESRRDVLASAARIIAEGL

KP1010 SHV-12 = experiment: Aztreonam potentiation (MPC@4), strain KP1010 SHV-12; settings: minimum BLI concentration inhibiting growth with aztreonam 4 μg/mL; tested up to 40 μg/mL
ECL1002 = experiment: Aztreonam potentiation (MPC@4), strain ECL1002; settings: minimum BLI concentration inhibiting growth with aztreonam 4 μg/mL; tested up to 40 μg/mL
ec302 TEM-10 = experiment: Aztreonam potentiation (MPC@4), strain ec302 TEM-10; settings: minimum BLI concentration inhibiting growth with aztreonam 4 μg/mL; tested up to 40 μg/mL
[9] = purified OXA-48, nitrocefin (NCF) as reporter substrate
[10] = purified KPC-2, nitrocefin (NCF) as reporter substrate

Compound | BPM MPC1 OXA-48 KP1086 (KP1086 OXA-48) | TIG MPC4 CTX-M-14 KP1005 (KP1005 CTX-M-14) | AZT MPC4 KPC-2 KP1004 (KP1004 KPC-2 [1]) | AZT MPC4 CMY-6 EC1010 (EC1010 CMY-6) | AZT MPC4 SHV-5 ec308 (ec308 SHV-5) | BPM MPC1 KP1004 KPC-2 (KP1004 KPC-2 [2]) | MPM MPC8 AB1054 OXA-23 (AB1054 OXA-23) | MPM MPC8 AB1053 OXA-72 (AB1053 OXA-72) | AZT MPC4 CTX-M-15 KP1009 (KP1009 CTX-M-15) | Ki (OXA-48, NCF), uM [3, 9] | pKi [4] | Ki (P99, NCF), uM [5] | pKi [6] | Ki (KPC-2, NCF), uM [7, 10] | AZT MPC4 SHV-12 KP1010 (KP1010 SHV-12) | AZT MPC4 ECL1002 (ECL1002) | AZT MPC4 TEM-10 ec302 (ec302 TEM-10) | other results
O=C([O-])c1c(CSC2CNC2)ccc2c1O[B-](O)(O)CC2.[Na+].[Na+] [Compound 19, Disodium; 8-(azetidin-3-ylsulfanylmethyl)-4,4-dihydroxy-5-oxa-4-boranuidabicyclo[4.4.0]deca-1(6),7,9-triene-7-carboxylate] | X (X = MPC@1 ≤ 5 μg/mL) | Z (Z = MPC@4 > 20 μg/mL) | X (X = MPC@4 ≤ 5 μg/mL) | X (X = MPC@4 ≤ 5 μg/mL) | X (X = MPC@4 ≤ 5 μg/mL) | X (X = MPC@1 ≤ 5 μg/mL) | X (X = MPC@1 ≤ 5 μg/mL) | X (X = MPC@1 ≤ 5 μg/mL) | X (X = MPC@4 ≤ 5 μg/mL) | X (X = Ki ≤ 0.1 μM) | > 7.00 | X (key: X = Ki ≤ 0.1 μM; Y = 0.1 μM < Ki ≤ 1 μM; Z = Ki > 1 μM) | > 7.00 | X (X = Ki ≤ 0.1 μM) | X (X = MPC@4 ≤ 5 μg/mL) | Y (Y = 5 μg/mL < MPC@4 ≤ 20 μg/mL) | Y (Y = 5 μg/mL < MPC@4 ≤ 20 μg/mL) | Ki (CTX-M-14, NCF), uM ([8]; purified CTX-M-14, nitrocefin (NCF) as reporter substrate): X (X = Ki ≤ 0.1 μM)
O=C(O)[C@H]1/C(=C/CO)O[C@@H]2CC(=O)N21 [Clavulanic Acid, reference compound] | Z (Z = MPC@1 > 20 μg/mL) | X (X = MPC@4 ≤ 5 μg/mL) | Z (Z = MPC@4 > 20 μg/mL) | Z (Z = MPC@4 > 20 μg/mL) | X (X = MPC@4 ≤ 5 μg/mL) | Y (Y = 5 μg/mL < MPC@1 ≤ 20 μg/mL) | – | – | X (X = MPC@4 ≤ 5 μg/mL) | – | – | – | – | – | X (X = MPC@4 ≤ 5 μg/mL) | Z (Z = MPC@4 > 20 μg/mL) | X (X = MPC@4 ≤ 5 μg/mL) | Ki (OXA-48, NCF), uM [3]: Z (key: X = Ki ≤ 0.1 μM; Y = 0.1 μM < Ki ≤ 1 μM; Z = Ki > 1 μM); Ki (KPC-2, NCF), uM [7]: Z (key: X = Ki ≤ 0.1 μM; Y = 0.1 μM < Ki ≤ 1 μM; Z = Ki > 1 μM); Ki (CTX-M-14, NCF), uM [8]: X (key: X = Ki ≤ 0.1 μM; Y = 0.1 μM < Ki ≤ 1 μM; Z = Ki > 1 μM)
CSc1ccc2c(c1C(=O)[O-])O[B-](O)(O)CC2.[Na+].[Na+] [Compound 36, Disodium; 4,4-dihydroxy-8-methylsulfanyl-5-oxa-4-boranuidabicyclo[4.4.0]deca-1(6),7,9-triene-7-carboxylate] | X (X = MPC@1 ≤ 5 μg/mL) | Y (Y = 5 μg/mL < MPC@4 ≤ 20 μg/mL) | X (X = MPC@4 ≤ 5 μg/mL) | X (X = MPC@4 ≤ 5 μg/mL) | X (X = MPC@4 ≤ 5 μg/mL) | X (X = MPC@1 ≤ 5 μg/mL) | X (X = MPC@1 ≤ 5 μg/mL) | Y (Y = 5 μg/mL < MPC@1 ≤ 20 μg/mL) | Y (Y = 5 μg/mL < MPC@4 ≤ 20 μg/mL) | X (X = Ki ≤ 0.1 μM) | > 7.00 | X (key: X = Ki ≤ 0.1 μM; Y = 0.1 μM < Ki ≤ 1 μM; Z = Ki > 1 μM) | > 7.00 | X (X = Ki ≤ 0.1 μM) | X (X = MPC@4 ≤ 5 μg/mL) | X (X = MPC@4 ≤ 5 μg/mL) | X (X = MPC@4 ≤ 5 μg/mL) | –
N#Cc1ccc2c(c1C(=O)[O-])O[B-](O)(O)CC2.[Na+].[Na+] [Compound 54, Disodium; 8-cyano-4,4-dihydroxy-5-oxa-4-boranuidabicyclo[4.4.0]deca-1(6),7,9-triene-7-carboxylate] | Z (Z = MPC@1 > 20 μg/mL) | Z (Z = MPC@4 > 20 μg/mL) | Z (Z = MPC@4 > 20 μg/mL) | Y (Y = 5 μg/mL < MPC@4 ≤ 20 μg/mL) | Z (Z = MPC@4 > 20 μg/mL) | X (X = MPC@1 ≤ 5 μg/mL) | Z (Z = MPC@1 > 20 μg/mL) | Z (Z = MPC@1 > 20 μg/mL) | Z (Z = MPC@4 > 20 μg/mL) | X (X = Ki ≤ 0.1 μM) | 6.00 to 7.00 | Y (key: X = Ki ≤ 0.1 μM; Y = 0.1 μM < Ki ≤ 1 μM; Z = Ki > 1 μM) | < 6.00 | Z (Z = Ki > 1 μM) | Z (Z = MPC@4 > 20 μg/mL) | Z (Z = MPC@4 > 20 μg/mL) | Z (Z = MPC@4 > 20 μg/mL) | –
O=C([O-])c1cc(F)cc2c1O[B-](O)(O)CC2.[Na+].[Na+] [Compound 37, Disodium; 9-fluoro-4,4-dihydroxy-5-oxa-4-boranuidabicyclo[4.4.0]deca-1(6),7,9-triene-7-carboxylate] | X (X = MPC@1 ≤ 5 μg/mL) | Z (Z = MPC@4 > 20 μg/mL) | X (X = MPC@4 ≤ 5 μg/mL) | X (X = MPC@4 ≤ 5 μg/mL) | Y (Y = 5 μg/mL < MPC@4 ≤ 20 μg/mL) | X (X = MPC@1 ≤ 5 μg/mL) | Z (Z = MPC@1 > 20 μg/mL) | Z (Z = MPC@1 > 20 μg/mL) | Y (Y = 5 μg/mL < MPC@4 ≤ 20 μg/mL) | X (X = Ki ≤ 0.1 μM) | > 7.00 | X (key: X = Ki ≤ 0.1 μM; Y = 0.1 μM < Ki ≤ 1 μM; Z = Ki > 1 μM) | > 7.00 | X (X = Ki ≤ 0.1 μM) | X (X = MPC@4 ≤ 5 μg/mL) | Y (Y = 5 μg/mL < MPC@4 ≤ 20 μg/mL) | Y (Y = 5 μg/mL < MPC@4 ≤ 20 μg/mL) | –
NCC#CCOc1ccc2c(c1C(=O)[O-])O[B-](O)(O)CC2.[Na+].[Na+] [Compound 32, Disodium; 8-(4-aminobut-2-ynoxy)-4,4-dihydroxy-5-oxa-4-boranuidabicyclo[4.4.0]deca-1(6),7,9-triene-7-carboxylate] | X (X = MPC@1 ≤ 5 μg/mL) | Y (Y = 5 μg/mL < MPC@4 ≤ 20 μg/mL) | X (X = MPC@4 ≤ 5 μg/mL) | X (X = MPC@4 ≤ 5 μg/mL) | Y (Y = 5 μg/mL < MPC@4 ≤ 20 μg/mL) | X (X = MPC@1 ≤ 5 μg/mL) | X (X = MPC@1 ≤ 5 μg/mL) | X (X = MPC@1 ≤ 5 μg/mL) | X (X = MPC@4 ≤ 5 μg/mL) | X (X = Ki ≤ 0.1 μM) | > 7.00 | X (key: X = Ki ≤ 0.1 μM; Y = 0.1 μM < Ki ≤ 1 μM; Z = Ki > 1 μM) | > 7.00 | X (X = Ki ≤ 0.1 μM) | X (X = MPC@4 ≤ 5 μg/mL) | X (X = MPC@4 ≤ 5 μg/mL) | X (X = MPC@4 ≤ 5 μg/mL) | –
COCC#CCOc1ccc2c(c1C(=O)[O-])O[B-](O)(O)CC2.[Na+].[Na+] [Compound 31, Disodium; 4,4-dihydroxy-8-(4-methoxybut-2-ynoxy)-5-oxa-4-boranuidabicyclo[4.4.0]deca-1(6),7,9-triene-7-carboxylate] | X (X = MPC@1 ≤ 5 μg/mL) | Y (Y = 5 μg/mL < MPC@4 ≤ 20 μg/mL) | X (X = MPC@4 ≤ 5 μg/mL) | X (X = MPC@4 ≤ 5 μg/mL) | X (X = MPC@4 ≤ 5 μg/mL) | X (X = MPC@1 ≤ 5 μg/mL) | X (X = MPC@1 ≤ 5 μg/mL) | X (X = MPC@1 ≤ 5 μg/mL) | Y (Y = 5 μg/mL < MPC@4 ≤ 20 μg/mL) | X (X = Ki ≤ 0.1 μM) | > 7.00 | X (key: X = Ki ≤ 0.1 μM; Y = 0.1 μM < Ki ≤ 1 μM; Z = Ki > 1 μM) | > 7.00 | X (X = Ki ≤ 0.1 μM) | X (X = MPC@4 ≤ 5 μg/mL) | X (X = MPC@4 ≤ 5 μg/mL) | Y (Y = 5 μg/mL < MPC@4 ≤ 20 μg/mL) | –
